What all share (assay type): cell-based
Assay [1] deals with HaCat cells. Description: Cell viability in the presence of N-acetylsphingenine (XTT kit). The note with it: 10 μM. On the procedure:
HaCat cells are cultured as in Example 2.
(§1) 24 hours after inoculation, the cells are brought into contact with various compounds tested in a KBM medium (company Clonetics) containing insulin at 5 μg/ml and hydrocortisone at 0.5 μg/ml.
The cells are cultured in the presence of the 2-amino-1,3-octadecanediol to be tested until the cell viability is evaluated.
The N-acteylsphingenine at the concentration of 10 μM is added to the culture medium over 2 hours at the beginning of the experiment.
(§2) The cell viability is evaluated 48 hours later by the measurement of mitochondrial respiration. This is carried out with the aid of an XTT kit sold by the company Boehringer and according to the supplier's instructions.
The experiment was carried out with the following compounds at the concentration of 50 nM:
in comparison with the culture medium without alkanediol and without N-acetylsphingenine (A), and with a medium containing only N-acetylsphingenine (B).
The results, expressed as a percentage, represent the number of cells relative to the control (A), that is to say relative to a culture carried out under the same conditions in the absence of alkanediol compounds and of N-acetysphingenine.

For assay [2], the system named is HaCat cells. Description: Effect on cell viability (mitochondrial respiration, XTT kit). The note with it: 50 nM. As to the method: (§3) HaCat cells are cultured as above.
(§4) They are then inoculated at the density of 20,000 cells per well into the 24 wells of multiwell-type plates (Costar, France).
as §1, §2
Compounds A and B of the preceding example were tested at the concentration of 50 nM, as well as a derivative based on sphingenine: N-palmitoylsphingenine from Sigma (C16H).
The results, expressed as a percentage, represent the increase in the number of cells relative to the control, that is to say relative to a culture carried out under the same conditions in the absence of alkanediol compounds.

Assay [3] has as its system HaCat cells. Description: Effect on the cell cycle (BrdU incorporation, S phase). The note with it: 50 nM. On the procedure: as §3, §4
24 hours after inoculation, the cells are brought into contact with various compounds tested in a KBM medium (company Clonetics) containing insulin at 5 μg/ml and hydrocortisone at 0.5 μg/ml, and 5-bromo-2′-deoxyuridine (BrdU) at 1 μM.
[…] This is carried out with the aid of a “BrdU fast” kit sold by the company Boehringer and according to the supplier's instructions.
Compounds A and B of the preceding example were tested at the concentration of 50 nM.
The results, expressed as a percentage, represent the increase in the number of cells which entered the S phase relative to the control, that is to say relative to a culture carried out under the same conditions in the absence of alkanediol compounds.

Assay [4] deals with HaCat cells. As to the kind of experiment: Proliferative effect on keratinocytes in culture (cell counting, Coulter Counter). The note with it: for increase in the number of cells relative to the control: counting 5 days after addition. On the procedure: HaCat cells (Boukamp et al., J. Cell Biol. Vol. 106, March 1988, 761-771) are cultured in DMEM medium (company Gibco) containing amino acids (mixture of nonessential amino acids) at the concentration of 0.1 mM, penicillin and streptomycin at the respective concentrations of 50 International Units per milliliter and 50 μg/ml, glutamine at the concentration of 2 mM, sodium pyruvate at the concentration of 1 mM and foetal calf serum at 10%. These cells were inoculated at the density of 10,000 cells per well into the 24 wells of multiwell-type plates (Costar, France).
24 hours after inoculation, the cells are brought into contact with various compounds tested in a KBM medium (company Clonetics) containing 0.15 mM of calcium ion, insulin at 5 μg/ml, hydrocortisone at 0.5 μg/ml and lipid-free bovine serum albumin at 1 μg/ml.
Cell counting is carried out 5 days after the addition of the various ceramides using a cell counter of the Coulter Counter type.
The various compounds are tested at 0.5 nM, 5 nM, 50 nM and 500 nM.
The results, expressed as a percentage, represent the increase in the number of cells relative to the control, that is to say relative to a culture carried out under the same conditions in the absence of sphinganine.

Consider N-acetylsphingenine [B], for which, in the assay on HaCat cells [1], the “effect of N-acetylsphingenine on cell viability (in words)” value is recorded as “decrease in cell viability”.
In the case of `CCCCCCCCCCCCC/C=C/[C@@H](O)[C@H](CO)NC(=O)CCCCCCCCCCCCCCC` [Compound C16H, N-palmitoylsphingenine, reference compound], the “effect on viability of keratinocytes in culture (in words)” value in the assay with HaCat cells [2] is on record as “cytotoxic effect”.
In the case of `CCCCCCCCCCCCCCCC(O)C(N)CO` (single isomer, unassigned) [A, 2-amino-1,3-octadecanediol], the “effect on number of keratinocytes which entered the S phase (in words)” value with HaCat cells [3] is “increase the number of keratinocytes which entered the S phase”. For the same compound, the “increase in the number of cells which entered the S phase relative to the control” value in the assay on HaCat cells [3] (72 hours) is on record as 36%; with HaCat cells [3] (96 hours) it was 41%. For the same compound, the “effect on viability of keratinocytes in culture (in words)” value in the assay with HaCat cells [2] was “increase the viability”. The “cell viability: increase in the number of cells relative to the control” value in the assay with HaCat cells [2] (XTT 48 hours later) is listed as “+17%”. Also, the “proliferative activity on keratinocytes in culture (in words)” value with HaCat cells [4] was “proliferative activity”. For the same compound, the “increase in the number of cells relative to the control” value with HaCat cells [4] (0.5 nM) came out at 7%; in the assay with HaCat cells [4] (5 nM), 15%; in the assay on HaCat cells [4] (50 nM), 17%; with HaCat cells [4] (500 nM), 30%.

The values above are taken from US20020006420A1, “USE OF A 2-AMINO-ALKANE POLYOL AS AGENT FOR TREATING SKIN AGEING SIGNS” (priority 1997, published 2002).
